In assay [1] the test system is HCMV wild-type. Description: HCMV yield assay. In kind it is cell-based, human cytomegalovirus. The settings on record: human foreskin fibroblasts; for IC50: Human betaherpesvirus 5, Fibroblast, read-out: IC50 Ug/ml HCMV. The protocol:
Yield assay. Monolayer cultures of human foreskin fibroblasts are infected with HCMV wild-type, typically at a multiplicity of infection equal to 0.2, in the presence of inhibitor compound (varying concentrations). At three days post-infection, total virus produced in these cultures (i.e. virus yield) is assessed by harvesting and titering the virus in 12-well plates of cultured human foreskin fibroblasts (done in the absence of inhibitor). Plaques are quantified at 2 weeks post-infection. An inhibitor of HCMV is identified by the reduction in titer of virus yield in the presence, compared to the titer in the absence of compound. In this assay, the relative anti-HCMV activity of an inhibitor is typically determined by calculating the IC50 or IC90 value, that is, the amount of compound required to reduce the virus yield by 50% or 90%, respectively. Table I describes IC50 data for compounds tested against HCMV.

Assay [2] relates to HSV-1. The assay can be described thus: HSV Antiviral (ELISA) Assay. In kind it is cell-based, herpes simplex virus type 1. The settings on record: Vero cells, HSV-1; for IC50: Human alphaherpesvirus 1, Vero, read-out: IC50 Ug/ml HSV. The protocol: Vero cells (ATCC #CCL-81) are plated on 96-well tissue culture plates at 3.5×10^4 cells per 100 μl tissue culture DMEM (Dulbecco's modified Eagle media) supplemented with 2% fetal bovine serum (FBS) in each well. After overnight incubation @ 37° C. (in 5% CO2) and 30 minutes prior to infection with HSV-1 (multiplicity of infection equal to 0.006), cells are either untreated, or treated with test compound (multiple concentrations) or reference standard drug control. After approximately 24 hours post-infection incubation @ 37° C. (in 5% CO2), cells are fixed for ELISA assay. The primary antibody is murine anti-HSV glycoprotein D monoclonal primary antibody and the secondary antibody is goat anti-mouse IgG linked to β-galactosidase. Thus the extent of viral replication is determined by assessing β-galactosidase activity by quantifying the generation of the 4-methyl umbelliferone fluorescent cleavage product after addition of the methyl umbelliferyl-β-D-galactoside (Sigma #M1633) substrate on a microfluorimeter (365 nm for excitation and 450 nm for emission). Antiviral activity (IC50) of the test compound is determined by comparing the flourescence obtained in absence of compound to that obtained in the presence of compound.

Assay [3] has as its system VZV strain Ellen. Description: VZV Antiviral (ELISA) Assay. In kind it is cell-based, varicella-zoster virus. The settings on record: human foreskin fibroblast cells; for IC50 / inhibition at 10 µg/mL: Human alphaherpesvirus 3, Fibroblast; for IC50: read-out: IC50 Ug/ml VZV; for inhibition at 10 µg/mL: read-out: % inhibition 10 ug/ml VZV, 10 ug/ml. The protocol:
For the generation of stock VZV to be used in the assay, VZV strain Ellen (ATCC #VR-1367) is used to infect human foreskin fibroblast (HFF) cells at low multiplicity (less than 0.1) and incubated overnight at 37° C. in 5% CO2. After the overnight incubation, the mixture of uninfected and VZV-infected HFF infected cells are then harvested and added to each well of 96-well plates (3.5×10^4 cells in 100 μl DMEM supplemented with 2% FBS) which contain test compound or the reference standard drug control (in 100 μl DMEM supplemented with 2% FBS per well). These cells are incubated for three days at 37° C. in 5% CO2, then fixed for ELISA assay. The primary antibody is murine anti-VZV glycoprotein II monoclonal antibody (Applied Biosystems, Inc. #13-145-100) and the secondary antibody is goat anti-mouse IgG linked to β-galactosidase. Thus the extent of viral replication is determined by assessing β-galactosidase activity by quantifying the generation of the 4-methyl umbelliferone fluorescent cleavage product after addition of the methyl umbelliferyl-β-D-galactoside (Sigma #M1633) substrate on a microfluorimeter (365 nm for excitation and 450 nm for emission). Antiviral activity (IC50) of the test compound is determined by comparing the flourescence obtained in absence of compound to that obtained in the presence of compound.
Background: An ELISA detects its analyte on a solid surface through an enzyme-linked reagent.

Converted amounts (≈) assume the structure as drawn.

Turning to `COc1cc(NC(=S)Nc2ccc(NC(C)=O)cc2)cc(OC)c1OC` [Example 151, N-{4-[3-(3,4,5-Trimethoxy-phenyl)-thioureido]-phenyl}-acetamide], the IC50 was 40 µg/mL (≈ 107 µM) in assay [1], over 50 µg/mL in assay [2] and over 10 µg/mL in assay [3]. Besides, in assay [3], the inhibition at 10 µg/mL worked out at 0%.
On the same counts, the results for `CC(=O)Nc1ccc(NC(=S)Nc2ccc(NCCCN(C)C)c(Cl)c2)cc1` [Example 318, N-(4-{3-[3-Chloro-4-(3-dimethylamino-propylamino)-phenyl]-thioureido}-phenyl)-acetamide] are over 50 µg/mL, over 50 µg/mL, over 10 µg/mL and 26%.
In the same order, the values of `COc1ccc(NC(=S)Nc2ccc(NC(C)=O)cc2)c(OC)c1` [Example 103, N-{4-[3-(2,4-Dimethoxy-phenyl)-thioureido]-phenyl}-acetamide] are over 50 µg/mL, 25 µg/mL (≈ 72.4 µM), over 10 µg/mL and 28%.
On the same counts, the results for `COc1c(Cl)cc(NC(=S)Nc2ccc(NC(C)=O)cc2)cc1Cl` [Example 109, N-{4-[3-(3,5-Dichloro-4-methoxy-phenyl)-thioureido]-phenyl}-acetamide] are 0.4 µg/mL (≈ 1.04 µM), over 10 µg/mL, over 10 µg/mL and 27%.
`CC(=O)Nc1ccc(NC(=S)Nc2cc(Cl)c(O)c(Cl)c2)cc1` [Example 108, N-{4-[3-(3,5-Dichloro-4-hydroxy-phenyl)-thioureido]-phenyl}-acetamide]: the IC50 in assay [1] is over 50 µg/mL; in assay [2], 50 µg/mL (≈ 135 µM); in assay [3] it was over 10 µg/mL. Also, in assay [3], the inhibition at 10 µg/mL was 28%.
In the same order, the values of `CCC(C)Oc1ccc(NC(=S)Nc2ccc(NC(C)=O)cc2)cc1Cl` (stereo not drawn) [Example 252, N-{4-[3-(4-sec-Butoxy-3-chloro-phenyl)-thioureido]-phenyl}-acetamide] are 10 µg/mL (≈ 25.5 µM), 10 µg/mL (≈ 25.5 µM), over 10 µg/mL and 0%.
On the same counts, the results for `COc1cc(OCC(=O)OC(C)(C)C)c(NC(=S)Nc2ccc(NC(C)=O)cc2)cc1Cl` [Example 218, {2-[3-(4-Acetylamino-phenyl)-thioureido]-4-chloro-5-methoxy-phenoxy}-acetic acid tert-butyl ester] are over 10 µg/mL, 15 µg/mL (≈ 31.3 µM), over 10 µg/mL and 18%.
On the same counts, the results for `COc1cc(OC)c(NC(=S)Nc2ccc(NC(C)=O)cc2C#N)cc1Cl` [Example 383, N-{4-[3-(5-Chloro-2,4-dimethoxy-phenyl)-thioureido]-3-cyano-phenyl}-acetamide] are over 10 µg/mL, over 10 µg/mL, over 10 µg/mL and 38%.
On to `COc1cc(NCc2ccccc2)c(NC(=S)Nc2ccc(NC(C)=O)cc2)cc1Cl` [Example 271, N-{4-[3-(2-Benzylamino-5-chloro-4-methoxy-phenyl)-thioureido]-phenyl}-acetamide], for which the results for the IC50 in assay [1], in assay [2] and in assay [3] were over 10 µg/mL, 7 µg/mL (≈ 15.4 µM) and 3.5 µg/mL (≈ 7.69 µM), respectively. The inhibition at 10 µg/mL in assay [3] turned out to be 105%.
On to `COc1cc(OCCCC#N)c(Cl)cc1NC(=S)Nc1ccc(NC(C)=O)cc1` [Example 211, N-(4-{3-[5-Chloro-2-methoxy-4-(4-nitrilo-butoxy)-phenyl]-thioureido}-phenyl)-acetamide], for which the IC50 is over 10 µg/mL in assay [1], 30 µg/mL (≈ 69.3 µM) in assay [2] and over 10 µg/mL in assay [3]. The inhibition at 10 µg/mL in assay [3] came out at 35%.
For `CC(=O)Nc1ccc(NC(=S)Nc2ccc(N(C)C3CCCCC3)c(Cl)c2)cc1` [Example 203], the “IC50 Ug/ml HCMV” value in assay [1] was 2 Ug/ml. For the same compound, the “IC50 Ug/ml HSV” value in assay [2] is recorded as over 10 Ug/ml. For the same compound, in assay [3], the “% inhibition 10 ug/ml VZV” value was 22% and the “IC50 Ug/ml VZV” value is listed as over 10 Ug/ml.
As to `CCCCOc1ccc(NC(=S)Nc2ccc(NC(C)=O)cc2)cc1Cl` [Example 266, N-{4-[3-(4-Butoxy-3-chloro-phenyl)-thioureido]-phenyl}-acetamide], the IC50 is over 10 µg/mL in assay [1], 12 µg/mL (≈ 30.6 µM) in assay [2] and over 10 µg/mL in assay [3]. Moreover, in assay [3], the inhibition at 10 µg/mL amounted to 10%.
On to `CC(=O)Nc1ccc(NC(=S)Nc2ccc(NC(=O)CN(C)C)c(Cl)c2)cc1` [Example 360, N-{4-[3-(4-Acetylamino-phenyl)-thioureido]-2-chloro-phenyl}-2-dimethyl-amino-acetamide], for which the “IC50 Ug/ml HCMV” value in assay [1] is over 10 Ug/ml. The “IC50 Ug/ml HSV” value in assay [2] was over 10 Ug/ml. In addition, in assay [3], the “% inhibition 10 ug/ml VZV” value turned out to be 16% and the “IC50 Ug/ml VZV” value is listed as over 10 Ug/ml.
As for `CC(=O)Nc1ccc(NC(=S)Nc2ccc(N3CCCC4CCCCC43)c(Cl)c2)cc1` (stereo not drawn) [Example 282, N-(4-{3-[3-Chloro-4-(octahydro-quinolin-1-yl)-phenyl]-thioureido}-phenyl)-acetamide], the IC50 in assay [1], in assay [2] and in assay [3] was over 10 µg/mL throughout. Besides, the inhibition at 10 µg/mL in assay [3] amounted to 50%.
Take `COc1cc(OC)c(NC(=S)Nc2cccc(NC(C)=O)c2)cc1Cl` [Example 100, N-{3-[3-(5-Chloro-2,4-dimethoxy-phenyl)-thioureido]-phenyl}-acetamide]: the IC50 is over 50 µg/mL in assay [1], 40 µg/mL (≈ 105 µM) in assay [2] and over 10 µg/mL in assay [3]. Also, the inhibition at 10 µg/mL in assay [3] was determined as 19%.
As to `CC(=O)Nc1ccc(NC(=S)Nc2ccc(C(F)(F)F)c(Cl)c2)cc1` [Example 908, N-{4-[3-(3-Chloro-4-trifluoromethyl-phenyl)-thioureido]-phenyl}-acetamide], the IC50 in assay [1] is 0.6 µg/mL (≈ 1.55 µM); in assay [2], over 10 µg/mL; in assay [3], over 10 µg/mL. For the same compound, the inhibition at 10 µg/mL in assay [3] is 36%.
For `CCCCCCN(C)c1ccc(NC(=S)Nc2ccc(NC(C)=O)cc2)cc1Cl` [Example 906, N-(4-{3-[3-Chloro-4-(hexyl-methyl-amino)-phenyl]-thioureido}-phenyl)-acetamide], the results for the IC50 in assay [1], in assay [2] and in assay [3] were 1.5 µg/mL (≈ 3.46 µM), over 10 µg/mL and over 10 µg/mL, respectively. The inhibition at 10 µg/mL in assay [3] was determined as 32%.
Regarding `CC(=O)Nc1ccc(NC(=S)Nc2ccc(N(C)CCO)c(Cl)c2)cc1` [Example 291], the “IC50 Ug/ml HCMV” value in assay [1] is reported as 6 Ug/ml. The “IC50 Ug/ml HSV” value in assay [2] was over 50 Ug/ml. Moreover, in assay [3], the “% inhibition 10 ug/ml VZV” value is given as 18% and the “IC50 Ug/ml VZV” value was over 10 Ug/ml.
As for `CCOc1ccc(NC(=S)Nc2ccc(NC(C)=O)cc2)cc1Cl` [Example 268, N-{4-[3-(3-Chloro-4-ethoxy-phenyl)-thioureido]-phenyl}-acetamide], the IC50 in assay [1] is 10 µg/mL (≈ 27.5 µM); in assay [2], over 10 µg/mL; in assay [3] it was over 10 µg/mL. Also, the inhibition at 10 µg/mL in assay [3] was 14%.
On to `CC(=O)Nc1ccc(NC(=S)Nc2ccc(C)c(Cl)c2)cc1` [Example 889, N-{4-[3-(3-Chloro-4-methyl-phenyl)-thioureido]-phenyl}-acetamide], for which the IC50 is 1.2 µg/mL (≈ 3.59 µM) in assay [1], 2 µg/mL (≈ 5.99 µM) in assay [2] and over 10 µg/mL in assay [3]. Also, in assay [3], the inhibition at 10 µg/mL worked out at 1%.
In the same order, the values of `CCOc1c(Cl)cc(NC(=S)Nc2ccc(NC(C)=O)cc2)cc1Cl` [Example 176, N-{4-[3-(3,5-Dichloro-4-ethoxy-phenyl)-thioureido]-phenyl}-acetamide] are 0.5 µg/mL (≈ 1.26 µM), over 50 µg/mL, over 10 µg/mL and 24%.

The record behind these values is patent publication US6335350B1, “Acetamide and substituted acetamide-containing thiourea inhibitors of herpes viruses” (American Home Products Corporation, priority 1998, dated 2002).
